Source: ChEMBL document CHEMBL4420076, “Amylin and calcitonin receptor agonist” (2017)
≈ marks a conversion by molar mass, not a printed value. Numbered stars: 1 amine (or outer) side, 2 acyl side, 3 side chain; on linkers, the order of the positions; unused ones are H or OH. Peptide text beside a SMILES is read from it. * marks the point of attachment. γGlu = O=C(O)[C@H](CCC(=O)[*:2])N[*:1]; C14 diacid = O=C(O)CCCCCCCCCCCCC(=O)*; C12 diacid = O=C(O)CCCCCCCCCCC(=O)*; AEEA = NCCOCCOCC(=O)O

Legend:
[1] = tested on: Rattus norvegicus; assay: Reduction in food intake in Sprague-Dawley rat at 3 nmol/kg measured 0 to 24 hrs post dose relative to control; assay type: functional; parameters: scale not given: the % may be the effect or the level left
[2] = tested on: Rattus norvegicus; assay: Reduction in food intake in Sprague-Dawley rat at 3 nmol/kg measured 24 to 48 hrs post dose relative to control; assay type: functional; parameters: scale not given: the % may be the effect or the level left
[3] = target: T1, Amylin receptor AMY3; CALCR/RAMP3 (Homo sapiens, UniProt O60896+P30988); assay: Agonist activity at human amylin receptor expressed in BHK570 cells co-expressing RAMP3 assessed as increase in intracellular cAMP concentration incubated for 3 hrs in absence of albumin by CRE luciferase reporter gene assay; assay type: functional, cell-based
T1 sequence (P30988 whole entry): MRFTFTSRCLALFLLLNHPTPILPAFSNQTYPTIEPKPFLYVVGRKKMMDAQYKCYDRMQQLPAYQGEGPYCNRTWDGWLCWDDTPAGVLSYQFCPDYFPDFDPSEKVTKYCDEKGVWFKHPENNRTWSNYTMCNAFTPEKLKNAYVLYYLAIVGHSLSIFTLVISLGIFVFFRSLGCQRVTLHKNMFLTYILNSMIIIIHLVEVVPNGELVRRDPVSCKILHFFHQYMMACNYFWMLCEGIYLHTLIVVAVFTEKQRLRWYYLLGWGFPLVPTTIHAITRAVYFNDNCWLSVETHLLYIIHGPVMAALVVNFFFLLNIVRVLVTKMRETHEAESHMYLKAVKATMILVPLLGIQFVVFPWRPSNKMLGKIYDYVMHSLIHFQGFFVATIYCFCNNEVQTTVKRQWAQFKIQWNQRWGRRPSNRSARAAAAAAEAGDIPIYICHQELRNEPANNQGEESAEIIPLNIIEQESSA
T1 sequence (O60896 whole entry): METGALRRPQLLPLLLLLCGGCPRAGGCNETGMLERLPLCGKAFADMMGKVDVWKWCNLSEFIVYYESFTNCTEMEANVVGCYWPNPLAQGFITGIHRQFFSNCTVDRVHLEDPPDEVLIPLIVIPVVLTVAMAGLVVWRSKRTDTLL

[4] = target: T2, Calcitonin receptor (Homo sapiens, UniProt P30988); assay: Agonist activity at human calcitonin receptor expressed in BHK570 cells assessed as increase in intracellular cAMP concentration incubated for 3 hrs in absence of albumin by CRE luciferase reporter gene assay; assay type: functional, cell-based
T2 sequence (P30988 whole entry): T1 sequence (P30988 whole entry)

[5] = Solubility in 100 mM bistrispropane buffer at pH 6.5 incubated for 18 hrs by UPLC analysis; assay type: physicochemical
[6] = target: T1, Amylin receptor AMY3; CALCR/RAMP3; assay: Displacement of [125I]-labeled rat amylin from human amylin receptor expressed in BHK tkts13 whole cells co-expressing RAMP3 incubated for 60 mins by scintillation proximity assay; assay type: cell-based
[7] = Solubility in 100 mM glycylglycine buffer at pH 3.0 incubated for 18 hrs by UPLC analysis; assay type: physicochemical
[8] = Solubility in 100 mM glycylglycine buffer at pH 4.0 incubated for 18 hrs by UPLC analysis; assay type: physicochemical
[9] = Solubility in 100 mM bistrispropane buffer at pH 6.0 incubated for 18 hrs by UPLC analysis; assay type: physicochemical
[10] = Solubility in 100 mM glycylglycine buffer at pH 5.0 incubated for 18 hrs by UPLC analysis; assay type: physicochemical
[11] = Solubility in 100 mM bistrispropane buffer at pH 7.0 incubated for 18 hrs by UPLC analysis; assay type: physicochemical
[12] = Solubility in 100 mM bistrispropane buffer at pH 7.5 incubated for 18 hrs by UPLC analysis; assay type: physicochemical
[13] = Solubility in 100 mM bistrispropane buffer at pH 8.0 incubated for 18 hrs by UPLC analysis; assay type: physicochemical

SMILES: CC(C)C[C@H](NC(=O)[C@H](C)NC(=O)[C@H](C)NC(=O)[C@@H](NC(=O)[C@H](CO)NC(=O)[C@H](CC(C)C)NC(=O)[C@H](CCC(=O)O)NC(=O)[C@H](CO)NC(=O)[C@H](C)NC(=O)[C@H](CCC(=O)O)NC(=O)CCCCCCCCCCC(=O)O)[C@@H](C)O)C(=O)NCC(=O)N[C@@H](CCCNC(=N)N)C(=O)N[C@@H](CC(C)C)C(=O)N[C@@H](CO)C(=O)N[C@@H](C)C(=O)N[C@@H](CCC(=O)O)C(=O)N[C@@H](CC(C)C)C(=O)N[C@@H](Cc1cnc[nH]1)C(=O)N[C@@H](CCC(=O)O)C(=O)N[C@@H](CC(C)C)C(=O)N[C@@H](C)C(=O)N[C@H](C(=O)N[C@@H](CC(C)C)C(=O)N1CCC[C@H]1C(=O)N[C@@H](CCCNC(=N)N)C(=O)N[C@H](C(=O)N[C@@H](CCC(=O)O)C(=O)N[C@H](C(=O)NCC(=O)N1CCC[C@H]1C(=O)N[C@@H](CCC(=O)O)C(=O)N[C@@H](CO)C(=O)N1CCC[C@H]1C(N)=O)[C@@H](C)O)[C@@H](C)O)[C@@H](C)O ({C12 diacid}-EASELSTAALGRLSAELHELATLPRTETGPESP-NH2)
- Activity [1]: 2%
- Activity [2]: -12%
- EC50 [3]: 0.023 nM
- EC50 [4]: 0.008 nM
- solubility at 18 h [5]: 5 µM (≈ 18.2 µg/mL)
- IC50 [6]: 8.97 nM

SMILES: CC(C)C[C@H](NC(=O)[C@H](C)NC(=O)[C@H](C)NC(=O)[C@@H](NC(=O)[C@H](CO)NC(=O)[C@H](CC(C)C)NC(=O)[C@H](CCC(=O)O)NC(=O)[C@H](CO)NC(=O)[C@H](C)NC(=O)[C@H](CCC(=O)O)NC(=O)COCCOCCNC(=O)COCCOCCNC(=O)COCCOCCNC(=O)COCCOCCNC(=O)CC[C@H](NC(=O)CC[C@H](NC(=O)CCCCCCCCCCCCC(=O)O)C(=O)O)C(=O)O)[C@@H](C)O)C(=O)NCC(=O)N[C@@H](CCCNC(=N)N)C(=O)N[C@@H](CC(C)C)C(=O)N[C@@H](CO)C(=O)N[C@@H](C)C(=O)N[C@@H](CCC(=O)O)C(=O)N[C@@H](CC(C)C)C(=O)N[C@@H](Cc1cnc[nH]1)C(=O)N[C@@H](CCC(=O)O)C(=O)N[C@@H](CC(C)C)C(=O)N[C@@H](C)C(=O)N[C@H](C(=O)N[C@@H](CC(C)C)C(=O)N1CCC[C@H]1C(=O)N[C@@H](CCCNC(=N)N)C(=O)N[C@H](C(=O)N[C@@H](CCC(=O)O)C(=O)N[C@H](C(=O)NCC(=O)N1CCC[C@H]1C(=O)N[C@@H](CCC(=O)O)C(=O)N[C@@H](CO)C(=O)N1CCC[C@H]1C(N)=O)[C@@H](C)O)[C@@H](C)O)[C@@H](C)O ({C14 diacid-γGlu-γGlu-AEEA-AEEA-AEEA-AEEA}-EASELSTAALGRLSAELHELATLPRTETGPESP-NH2)
- Activity [1]: 3%
- Activity [2]: -3%
- EC50 [3]: 0.027 nM
- EC50 [4]: 0.007 nM
- solubility at 18 h [7]: ≥ 200 µM
- solubility at 18 h [8]: ≥ 200 µM
- solubility at 18 h [9]: ≥ 200 µM
- solubility at 18 h [10]: ≥ 200 µM
- solubility at 18 h [5]: ≥ 200 µM
- solubility at 18 h [11]: ≥ 200 µM
- solubility at 18 h [12]: ≥ 200 µM
- solubility at 18 h [13]: ≥ 200 µM
- IC50 [6]: 8.38 nM

SMILES: CC(C)C[C@H](NC(=O)[C@H](C)NC(=O)[C@H](C)NC(=O)[C@@H](NC(=O)[C@H](CO)NC(=O)[C@H](CC(C)C)NC(=O)[C@H](CCC(=O)O)NC(=O)[C@H](CO)NC(=O)[C@H](C)NC(=O)[C@H](CCC(=O)O)NC(=O)CCCCCCCCCCCCC(=O)O)[C@@H](C)O)C(=O)NCC(=O)N[C@@H](CCCNC(=N)N)C(=O)N[C@@H](CC(C)C)C(=O)N[C@@H](CO)C(=O)N[C@@H](C)C(=O)N[C@@H](CCC(=O)O)C(=O)N[C@@H](CC(C)C)C(=O)N[C@@H](Cc1cnc[nH]1)C(=O)N[C@@H](CCC(=O)O)C(=O)N[C@@H](CC(C)C)C(=O)N[C@@H](C)C(=O)N[C@H](C(=O)N[C@@H](CC(C)C)C(=O)N1CCC[C@H]1C(=O)N[C@@H](CCCNC(=N)N)C(=O)N[C@H](C(=O)N[C@@H](CCC(=O)O)C(=O)N[C@H](C(=O)NCC(=O)N1CCC[C@H]1C(=O)N[C@@H](CCC(=O)O)C(=O)N[C@@H](CO)C(=O)N1CCC[C@H]1C(N)=O)[C@@H](C)O)[C@@H](C)O)[C@@H](C)O ({C14 diacid}-EASELSTAALGRLSAELHELATLPRTETGPESP-NH2)
- Activity [1]: 13.5%
- Activity [2]: -4%
- EC50 [3]: 0.006 nM
- EC50 [4]: 0.002 nM
- solubility at 18 h [7]: ≥ 200 µM
- solubility at 18 h [8]: ≥ 200 µM
- solubility at 18 h [9]: ≥ 200 µM
- solubility at 18 h [10]: ≥ 200 µM
- solubility at 18 h [5]: ≥ 200 µM
- solubility at 18 h [11]: ≥ 200 µM
- solubility at 18 h [12]: ≥ 200 µM
- solubility at 18 h [13]: ≥ 200 µM
- IC50 [6]: 1.19 nM
